Values of other authors as cited in US20240390346A1, “COMPOSITIONS FOR A DIETARY SUPPLEMENT TO MANAGE SENESCENT CELLS” (Neurohacker Collective, LLC, priority 2023, published 2024).

Test system: senescent cells
Settings: literature studies

Structure (SMILES)	senolytic / senomorphic activity
O=c1c(O)c(-c2ccc(O)c(O)c2)oc2cc(O)ccc12 [Fisetin]	both senolytic and senomorphic activity
O=c1cc(-c2ccc(O)c(O)c2)oc2cc(O)cc(O)c12 [Luteolin]	senolytic activity
COc1cc(/C=C/C(=O)N2CCC=CC2=O)cc(OC)c1OC [Piperlongumine]	senolytic activity
O=c1c(O)c(-c2ccc(O)c(O)c2)oc2cc(O)cc(O)c12 [quercetin]	both senolytic and senomorphic
